biological target: AT2 Receptor (AT2R) (Homo sapiens (Human), UniProt P50052); assay: Measurement of inhibitory activity on AT2 receptor (Tag-lite HTRF, Tb-labeled AT2R cells, angiotensin receptor red agonist); type: binding; conditions: 1 h room temperature
Method: Measurement of Inhibitory Activity on AT1 Receptor ([…])/AT2 Receptor (AT2R)
Through the following steps, the inhibitory activity of the compound on AT1R/AT2R (IC50 value) was determined:
1) An appropriate amount of 1×TLB (Tag-lite Buffer) was prepared and well mixed for use.
2) The compound was diluted by 10 times with ddH2O or DMSO. The compound was then dilute to 4 times of the working concentration with 1×TLB and mixed well for use.
3) 8600 nM Tag-lite angiotensin receptor red agonist was diluted to 12 nM (4×Kd) with 1×TLB.
4) 5 ml 1×TLB was taken into a 15 ml centrifuge tube.
5) After thawing 1 tube of Tb-labeled AT1R/AT2R cells in a 37° C. water bath, the cells were quickly transferred to the 1×TLB in step 4), mixed gently, and centrifuged at 1200 g for 5 minutes at room temperature.
6) The supernatant was aspirated gently, and the cells were resuspended and mixed in 2.7 ml 1×TLB, and then placed at room temperature until use.
7) 10 μl cells were added to all test wells, and 5 μl 4× working solution of the compound from step 2) was added to the corresponding test wells. 5 μl 4× Tag-lite angiotensin receptor red agonist well diluted in step 3) was added to all test wells.
8) After leaving the reaction plate at room temperature for 1 h, data were measured and analyzed using Envision HTRF Reader, and the half inhibitory concentration (IC50) of the compound on AT1R/AT2R was calculated with the GraphPad Prism four-parameter equation.

Sequence of AT2 Receptor (AT2R) (P50052 whole entry): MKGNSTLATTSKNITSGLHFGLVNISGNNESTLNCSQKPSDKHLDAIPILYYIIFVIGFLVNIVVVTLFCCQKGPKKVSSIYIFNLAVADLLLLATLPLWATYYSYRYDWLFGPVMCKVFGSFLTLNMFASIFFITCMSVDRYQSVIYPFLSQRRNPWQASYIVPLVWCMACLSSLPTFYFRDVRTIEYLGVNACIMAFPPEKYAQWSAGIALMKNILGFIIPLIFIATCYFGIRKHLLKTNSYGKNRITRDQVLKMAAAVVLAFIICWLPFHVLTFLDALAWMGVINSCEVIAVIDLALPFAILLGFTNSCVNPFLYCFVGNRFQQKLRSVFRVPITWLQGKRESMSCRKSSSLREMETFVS

In order of falling IC50:
1. O=C(O)[C@@H]1[C@H]2CC[C@@H](CN1C(=O)N(c1ccccc1)c1ccccc1)N2C(=O)Oc1ccccc1 [Compound C115, (1R,2S,5S)-3-(diphenylcarbamoyl)-8-(phenoxycarbonyl)-3,8-diazabicyclo [3.2.1]octane-2-carboxylic acid]  431 nM
2. CN(Cc1ccccc1)C(=O)N1[C@H]2CC[C@@H]1[C@@H](C(=O)O)N(C(=O)C1(c3ccccc3)CCCCC1)C2 [Compound C120, (1R,2S,5S)-8-(benzyl(methyl)carbamoyl)-3-(1-phenylcyclohexane-1-carbonyl)-3,8-diazabicyclo [3.2.1]octane-2-carboxylic acid]  350 nM
3. O=C(O)[C@@H]1[C@H]2CC[C@@H](CN1C(=O)N(c1ccccc1)c1ccccc1)N2C(=O)/C=C/c1ccccc1 [Compound C174, (1R,2S,5S)-8-cinnamoyl-3-(diphenylcarbamoyl)-3,8-diazabicyclo [3.2.1]octane-2-carboxylic acid]  226 nM
4. Cc1ccc(COC(=O)N2[C@H]3CC[C@@H]2[C@@H](C(=O)O)N(C(=O)C(c2ccccc2)c2ccccc2)C3)cc1 [Compound C194, (1R,2S,5S)-3-(2,2-diphenylacetyl)-8-(((4-methylbenzyl)oxy)carbonyl)-3,8-diazabicyclo [3.2.1]octane-2-carboxylic acid]  129 nM
5. CN(CC1CCCCC1)C(=O)N1[C@H]2CC[C@@H]1[C@@H](C(=O)O)N(C(=O)N(c1ccccc1)c1ccccc1)C2 [Compound C147, (1R,2S,5S)-8-((cyclohexylmethyl) (methyl)carbamoyl)-3-(diphenylcarbamoyl)-3,8-diazabicyclo [3.2.1]octane-2-carboxylic acid]  111 nM
6. CN(C)S(=O)(=O)NC(=O)[C@@H]1[C@H]2CC[C@@H](CN1C(=O)C(c1ccccc1)c1ccccc1)N2C(=O)OCc1ccccc1 [Compound C233]  102 nM
7. CN(Cc1ccccn1)C(=O)N1[C@H]2CC[C@@H]1[C@@H](C(=O)O)N(C(=O)N(c1ccccc1)c1ccccc1)C2 [Compound C126, (1R,2S,5S)-3-(diphenylcarbamoyl)-8-(methyl(pyridine-2-ylmethyl)carbamoyl)-3,8-diazabicyclo [3.2.1]octane-2-carboxylic acid]  78 nM
8. Cc1cc(CN(C)C(=O)N2[C@H]3CC[C@@H]2[C@@H](C(=O)O)N(C(=O)N(c2ccccc2)c2ccccc2)C3)cs1 [Compound C185]  38.8 nM
9. CCN(Cc1ccoc1)C(=O)N1[C@H]2CC[C@@H]1[C@@H](C(=O)O)N(C(=O)N(c1ccccc1)c1ccccc1)C2 [Compound C260, (1R,2S,5S)-3-(diphenylcarbamoyl)-8-(ethyl (furan-3-ylmethyl)carbamoyl)-3,8-diazabicyclo [3.2.1]octane-2-carboxylic acid]  29.6 nM
10. C=C(C)c1ccc(CN(C)C(=O)N2[C@H]3CC[C@@H]2[C@@H](C(=O)O)N(C(=O)N(c2ccccc2)c2ccccc2)C3)cc1 [Compound C215]  26.5 nM
11. O=C(O)[C@@H]1[C@H]2CC[C@@H](CN1C(=O)C(c1ccccc1)c1ccccc1)N2C(=O)OCc1c(F)cccc1F [Compound C36, (1R,2S,5S)-8-(((2,6-diflurorbenzyl)oxy)carbonyl)-3-(2,2-diphenylacetyl)-3,8-diazabicyclo [3.2.1]octane-2-carboxylic acid]  20.7 nM
12. C#Cc1ccc(CN(C)C(=O)N2[C@H]3CC[C@@H]2[C@@H](C(=O)O)N(C(=O)N(c2ccccc2)c2ccccc2)C3)cc1 [Compound C171, (1R,2S,5S)-3-(diphenylcarbamoyl)-8-((4-ethynylbenzyl) (methyl)carbamoyl)-3,8-diazabicyclo [3.2.1]octane-2-carboxylic acid]  19.2 nM
13. O=C(O)[C@@H]1[C@H]2CC[C@@H](CN1C(=O)N(c1ccccc1)c1ccccc1)N2C(=O)C1(c2ccccc2)CCCC1 [Compound C113, (1R,2S,5S)-3-(diphenylcarbamoyl)-8-(1-phenylcyclopentane-1-carbonyl)-3,8-diazabicyclo [3.2.1]octane-2-carboxylic acid]  12.1 nM
14. O=C(O)[C@@H]1[C@H]2CC[C@@H](CN1C(=O)N(c1ccccc1)c1ccccc1)N2C(=O)N1CCCC1c1ccccc1 (stereo partly drawn) [Compound C138, (1R,2S,5S)-3-(diphenylcarbamoyl)-8-(2-phenylpyrrolidine-1-carbonyl)-3,8-diazabicyclo[3.2.1] octane-2-carboxylic acid]  11.7 nM
15. CCN(Cc1csc2ccccc12)C(=O)N1[C@H]2CC[C@@H]1[C@@H](C(=O)O)N(C(=O)N(c1ccccc1)c1ccccc1)C2 [Compound C245, (1R,2S,5S)-8-((benzo[b]thiophene-3-ylmethyl) (ethyl)carbamoyl)-3-(diphenylcarbamoyl)-3,8-diazabicyclo [3.2.1]octane-2-carboxylic acid]  10.5 nM
16. Cc1cc(CN(C)C(=O)N2[C@H]3CC[C@@H]2[C@@H](C(=O)O)N(C(=O)C(c2ccccc2)c2ccccc2)C3)cs1 [Compound C277, (1R,2S,5S)-3-(2,2-diphenylacetyl)-8-(methyl((5-methylthiophen-3-yl)methyl)carbamoyl)-3,8-diazabicyclo [3.2.1]octane-2-carboxylic acid]  10.5 nM
17. CC1(N(Cc2ccsc2)C(=O)N2[C@H]3CC[C@@H]2[C@@H](C(=O)O)N(C(=O)N(c2ccccc2)c2ccccc2)C3)CC1 [Compound C198]  10.2 nM
18. CCN(Cc1ccccc1F)C(=O)N1[C@H]2CC[C@@H]1[C@@H](C(=O)O)N(C(=O)N(c1ccccc1)c1ccccc1)C2 [Compound C156, (1R,2S,5S)-3-(diphenylcarbamoyl)-8-(ethyl(2-fluorobenzyl)carbamoyl)-3,8-diazabicyclo [3.2.1]octane-2-carboxylic acid]  10.1 nM
19. O=C(O)[C@H]1[C@@H]2CC[C@H](CN1C(=O)C(c1ccccc1)c1ccccc1)N2C(=O)C(c1ccccc1)c1ccccc1 [Compound C4, (1S,2R,5R)-3,8-bis (2,2-diphenylacetyl)-3,8-diazabicyclo [3.2.1]octane-2-carboxylic acid]  9.82 nM
20. CCN(Cc1ccc(Cl)cc1)C(=O)N1[C@H]2CC[C@@H]1[C@@H](C(=O)O)N(C(=O)N(c1ccccc1)c1ccccc1)C2 [Compound C217, (1R,2S,5S)-8-((4-chlorobenzyl) (ethyl)carbamoyl)-3-(diphenylcarbamoyl)-3,8-diazabicyclo [3.2.1]octane-2-carboxylic acid]  9.13 nM
21. C=Cc1ccc(CN(C)C(=O)N2[C@H]3CC[C@@H]2[C@@H](C(=O)O)N(C(=O)N(c2ccccc2)c2ccccc2)C3)cc1 [Compound C170, (1R,2S,5S)-3-(diphenylcarbamoyl)-8-(methyl(4-vinylbenzyl)carbamoyl)-3,8-diazabicyclo[3.2.1] octane-2-carboxylic acid]  3.87 nM
22. O=C(O)[C@@H]1[C@H]2CC[C@@H](CN1C(=O)N(c1ccccc1)c1ccccc1)N2C(=O)N(Cc1ccsc1)C1CC1 [Compound C196, (1R,2S,5S)-8-(cyclopropyl (thiophene-3-yl-methyl)carbamoyl)-3-(diphenylcarbamoyl)-3,8-diazabicyclo [3.2.1]octane-2-carboxylic acid]  1.63 nM
23. CN(Cc1ccc2ncccc2c1)C(=O)N1[C@H]2CC[C@@H]1[C@@H](C(=O)O)N(C(=O)N(c1ccccc1)c1ccccc1)C2 [Compound C266, (1R,2S,5S)-3-(diphenylcarbamoyl)-8-(methyl (quinoline-6-ylmethyl)carbamoyl)-3,8-diazabicyclo [3.2.1]octane-2-carboxylic acid]  1.63 nM

From patent publication US11453690B2, “Receptor inhibitor, pharmaceutical composition comprising same, and use thereof” (BEIJING TIDE PHARMACEUTICAL CO., LTD., priority 2018, dated 2022)
